# Results reported in ChEMBL document CHEMBL5442175, “EUbOPEN Chemogenomics Library - PDSP Secondary Binding” (2024).
# Structures can show the parent of a compound that is named as a salt.
# What was measured:
# [1] = target: Sigma intracellular receptor 2 (Homo sapiens, UniProt Q5BJF2); assay: (§1) PDSP Secondary Binding target: TMEM97 - Compounds are tested at 10 uM concentration, plate are incubated at room temperature in the dark for 90 minutes. Reaction are stopped by vacuum filtration onto 0.3% polyethyleneimine soaked filter mats using Filtermate harvester. Scintillation cocktail is then melted onto microwave-dried filters on a hot plate and the radio activity is counted in Microbia counter.
# Sigma intracellular receptor 2, sequence (Q5BJF2 whole entry): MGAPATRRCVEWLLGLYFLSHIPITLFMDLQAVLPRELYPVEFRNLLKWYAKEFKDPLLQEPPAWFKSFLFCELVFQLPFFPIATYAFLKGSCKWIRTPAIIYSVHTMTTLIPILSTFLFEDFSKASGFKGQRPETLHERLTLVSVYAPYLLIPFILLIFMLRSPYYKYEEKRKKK
# [2] = target: 5-hydroxytryptamine receptor 2A (Homo sapiens, UniProt P28223); assay: as §1, with “HTR2A” for “TMEM97”
# 5-hydroxytryptamine receptor 2A, sequence (P28223 whole entry): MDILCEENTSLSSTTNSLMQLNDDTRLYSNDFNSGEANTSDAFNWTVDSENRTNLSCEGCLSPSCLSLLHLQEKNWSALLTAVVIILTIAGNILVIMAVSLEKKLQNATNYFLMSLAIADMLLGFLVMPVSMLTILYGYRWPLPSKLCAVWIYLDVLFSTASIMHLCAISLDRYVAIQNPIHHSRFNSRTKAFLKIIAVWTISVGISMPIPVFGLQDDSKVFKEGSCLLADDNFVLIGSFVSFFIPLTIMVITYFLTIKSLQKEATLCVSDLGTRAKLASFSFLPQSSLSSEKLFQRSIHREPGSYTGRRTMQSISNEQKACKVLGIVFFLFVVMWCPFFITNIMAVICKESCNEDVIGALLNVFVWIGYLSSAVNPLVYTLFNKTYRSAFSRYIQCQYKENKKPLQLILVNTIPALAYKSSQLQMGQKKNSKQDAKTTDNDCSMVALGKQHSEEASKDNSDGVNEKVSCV
# [3] = target: 5-hydroxytryptamine receptor 6 (Homo sapiens, UniProt P50406); assay: as §1, with “HTR6” for “TMEM97”
# 5-hydroxytryptamine receptor 6, sequence (P50406 whole entry): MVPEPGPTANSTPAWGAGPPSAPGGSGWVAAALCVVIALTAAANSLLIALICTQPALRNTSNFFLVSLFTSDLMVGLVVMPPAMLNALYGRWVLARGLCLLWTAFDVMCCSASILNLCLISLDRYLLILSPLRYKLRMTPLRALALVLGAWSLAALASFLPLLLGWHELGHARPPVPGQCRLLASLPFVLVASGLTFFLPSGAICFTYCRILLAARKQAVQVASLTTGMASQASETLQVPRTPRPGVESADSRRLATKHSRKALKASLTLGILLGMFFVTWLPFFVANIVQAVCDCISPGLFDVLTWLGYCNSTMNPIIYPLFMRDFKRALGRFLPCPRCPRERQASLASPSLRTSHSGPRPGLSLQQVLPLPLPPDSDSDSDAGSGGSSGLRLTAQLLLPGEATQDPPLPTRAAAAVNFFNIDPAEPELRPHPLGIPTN
# [4] = target: T1, Alpha-2B adrenergic receptor (Homo sapiens, UniProt P18089); assay: as §1, with “ADRA2B” for “TMEM97”
# T1 sequence (P18089 whole entry): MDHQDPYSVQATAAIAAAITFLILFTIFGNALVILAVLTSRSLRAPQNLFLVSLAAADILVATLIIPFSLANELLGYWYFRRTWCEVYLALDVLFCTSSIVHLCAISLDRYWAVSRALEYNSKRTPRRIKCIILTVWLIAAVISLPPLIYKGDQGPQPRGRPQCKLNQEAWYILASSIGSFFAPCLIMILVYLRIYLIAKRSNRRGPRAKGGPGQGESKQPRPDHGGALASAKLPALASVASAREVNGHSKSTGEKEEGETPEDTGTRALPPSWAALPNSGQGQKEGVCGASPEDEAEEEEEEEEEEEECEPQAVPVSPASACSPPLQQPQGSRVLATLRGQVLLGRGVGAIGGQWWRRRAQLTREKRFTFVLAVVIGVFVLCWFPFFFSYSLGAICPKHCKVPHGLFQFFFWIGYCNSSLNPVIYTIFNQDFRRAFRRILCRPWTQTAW
# [5] = target: Kappa-type opioid receptor (Homo sapiens, UniProt P41145); assay: as §1, with “OPRK1” for “TMEM97”
# Kappa-type opioid receptor, sequence (P41145 whole entry): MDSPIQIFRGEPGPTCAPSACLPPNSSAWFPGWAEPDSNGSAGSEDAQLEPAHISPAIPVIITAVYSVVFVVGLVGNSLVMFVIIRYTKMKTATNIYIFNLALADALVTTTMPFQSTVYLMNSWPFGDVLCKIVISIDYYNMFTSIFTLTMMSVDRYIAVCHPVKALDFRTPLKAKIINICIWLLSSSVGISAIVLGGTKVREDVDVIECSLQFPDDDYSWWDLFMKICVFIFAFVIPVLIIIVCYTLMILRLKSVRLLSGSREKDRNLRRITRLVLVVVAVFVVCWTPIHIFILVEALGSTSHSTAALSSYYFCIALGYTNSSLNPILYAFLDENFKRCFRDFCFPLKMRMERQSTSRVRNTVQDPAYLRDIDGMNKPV
# [6] = target: Sigma non-opioid intracellular receptor 1 (Homo sapiens, UniProt Q99720); assay: as §1, with “SIGMAR1” for “TMEM97”
# Sigma non-opioid intracellular receptor 1, sequence (Q99720 whole entry): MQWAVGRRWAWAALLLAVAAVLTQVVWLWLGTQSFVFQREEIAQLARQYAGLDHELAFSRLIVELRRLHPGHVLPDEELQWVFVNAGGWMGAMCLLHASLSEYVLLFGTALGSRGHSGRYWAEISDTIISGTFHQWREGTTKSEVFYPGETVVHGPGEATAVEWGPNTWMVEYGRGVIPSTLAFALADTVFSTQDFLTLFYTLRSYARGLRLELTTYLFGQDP
# [7] = target: T2, Alpha-2C adrenergic receptor (Homo sapiens, UniProt P18825); assay: as §1, with “ADRA2C” for “TMEM97”
# T2 sequence (P18825 whole entry): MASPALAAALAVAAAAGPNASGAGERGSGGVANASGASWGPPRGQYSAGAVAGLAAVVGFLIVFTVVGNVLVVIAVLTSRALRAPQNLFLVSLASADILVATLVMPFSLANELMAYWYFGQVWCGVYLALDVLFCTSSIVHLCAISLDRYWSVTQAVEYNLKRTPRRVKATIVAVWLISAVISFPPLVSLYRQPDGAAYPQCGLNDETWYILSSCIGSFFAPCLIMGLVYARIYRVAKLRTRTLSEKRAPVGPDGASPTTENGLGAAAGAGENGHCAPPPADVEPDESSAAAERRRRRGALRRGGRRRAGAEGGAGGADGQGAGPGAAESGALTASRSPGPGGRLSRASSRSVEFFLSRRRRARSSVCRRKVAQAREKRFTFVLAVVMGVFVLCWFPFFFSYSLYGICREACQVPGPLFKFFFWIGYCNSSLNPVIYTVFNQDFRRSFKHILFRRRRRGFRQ
# [8] = target: 5-hydroxytryptamine receptor 5A (Homo sapiens, UniProt P47898); assay: as §1, with “HTR5A” for “TMEM97”
# 5-hydroxytryptamine receptor 5A, sequence (P47898 whole entry): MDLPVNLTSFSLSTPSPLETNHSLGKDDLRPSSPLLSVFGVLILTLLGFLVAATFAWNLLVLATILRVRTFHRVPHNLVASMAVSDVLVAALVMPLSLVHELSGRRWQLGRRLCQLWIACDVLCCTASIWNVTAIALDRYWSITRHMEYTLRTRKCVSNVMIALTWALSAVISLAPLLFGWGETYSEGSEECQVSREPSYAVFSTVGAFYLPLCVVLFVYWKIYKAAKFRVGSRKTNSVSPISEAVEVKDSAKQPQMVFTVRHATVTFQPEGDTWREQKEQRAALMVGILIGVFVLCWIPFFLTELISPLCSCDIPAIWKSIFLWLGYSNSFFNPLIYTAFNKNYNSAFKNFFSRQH
# [9] = target: 5-hydroxytryptamine receptor 2B (Homo sapiens, UniProt P41595); assay: as §1, with “HTR2B” for “TMEM97”
# 5-hydroxytryptamine receptor 2B, sequence (P41595 whole entry): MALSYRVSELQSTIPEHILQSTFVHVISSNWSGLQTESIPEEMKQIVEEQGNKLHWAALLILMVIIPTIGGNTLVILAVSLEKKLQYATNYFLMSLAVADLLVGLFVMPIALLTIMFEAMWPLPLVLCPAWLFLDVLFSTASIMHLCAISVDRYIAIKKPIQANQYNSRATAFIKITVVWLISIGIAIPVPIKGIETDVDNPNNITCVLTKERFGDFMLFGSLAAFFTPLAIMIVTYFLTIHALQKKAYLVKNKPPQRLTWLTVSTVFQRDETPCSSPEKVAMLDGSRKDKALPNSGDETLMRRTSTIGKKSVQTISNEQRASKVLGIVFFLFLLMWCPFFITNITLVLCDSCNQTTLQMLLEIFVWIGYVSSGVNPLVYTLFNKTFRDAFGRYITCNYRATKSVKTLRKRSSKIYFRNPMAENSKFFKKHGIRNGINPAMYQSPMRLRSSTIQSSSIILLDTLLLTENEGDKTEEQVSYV
# [10] = target: Beta-3 adrenergic receptor (Homo sapiens, UniProt P13945); assay: as §1, with “ADRB3” for “TMEM97”
# Beta-3 adrenergic receptor, sequence (P13945 whole entry): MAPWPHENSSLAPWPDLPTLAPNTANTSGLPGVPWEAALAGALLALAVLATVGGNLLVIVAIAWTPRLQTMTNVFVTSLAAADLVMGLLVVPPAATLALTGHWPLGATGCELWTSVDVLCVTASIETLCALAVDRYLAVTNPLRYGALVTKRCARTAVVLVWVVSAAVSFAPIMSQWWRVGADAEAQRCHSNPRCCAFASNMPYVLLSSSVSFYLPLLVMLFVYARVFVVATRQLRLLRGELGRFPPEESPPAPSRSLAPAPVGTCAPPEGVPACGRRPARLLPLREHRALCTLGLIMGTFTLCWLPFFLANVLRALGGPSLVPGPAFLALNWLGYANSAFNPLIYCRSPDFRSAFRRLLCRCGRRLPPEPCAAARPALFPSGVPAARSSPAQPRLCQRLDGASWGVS
# [11] = target: Sodium-dependent noradrenaline transporter (Homo sapiens, UniProt P23975); assay: as §1, with “SLC6A2” for “TMEM97”
# Sodium-dependent noradrenaline transporter, sequence (P23975 whole entry): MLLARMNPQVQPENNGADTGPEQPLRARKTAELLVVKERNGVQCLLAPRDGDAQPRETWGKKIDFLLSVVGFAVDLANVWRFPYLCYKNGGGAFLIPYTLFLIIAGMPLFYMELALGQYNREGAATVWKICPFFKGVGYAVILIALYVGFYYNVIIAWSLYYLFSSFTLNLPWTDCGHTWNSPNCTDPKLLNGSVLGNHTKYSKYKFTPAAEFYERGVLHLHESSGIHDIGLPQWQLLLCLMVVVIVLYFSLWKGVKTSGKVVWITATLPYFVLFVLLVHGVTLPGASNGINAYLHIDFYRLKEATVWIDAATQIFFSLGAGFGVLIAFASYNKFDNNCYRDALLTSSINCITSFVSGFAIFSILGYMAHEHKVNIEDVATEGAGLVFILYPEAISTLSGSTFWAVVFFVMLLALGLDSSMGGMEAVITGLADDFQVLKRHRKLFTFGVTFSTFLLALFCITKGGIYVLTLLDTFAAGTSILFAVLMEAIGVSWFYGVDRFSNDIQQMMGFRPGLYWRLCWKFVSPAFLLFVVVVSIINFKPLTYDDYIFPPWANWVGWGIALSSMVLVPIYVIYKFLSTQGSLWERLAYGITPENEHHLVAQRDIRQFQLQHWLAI
# [12] = target: Histamine H2 receptor (Homo sapiens, UniProt P25021); assay: as §1, with “HRH2” for “TMEM97”
# Histamine H2 receptor, sequence (P25021 whole entry): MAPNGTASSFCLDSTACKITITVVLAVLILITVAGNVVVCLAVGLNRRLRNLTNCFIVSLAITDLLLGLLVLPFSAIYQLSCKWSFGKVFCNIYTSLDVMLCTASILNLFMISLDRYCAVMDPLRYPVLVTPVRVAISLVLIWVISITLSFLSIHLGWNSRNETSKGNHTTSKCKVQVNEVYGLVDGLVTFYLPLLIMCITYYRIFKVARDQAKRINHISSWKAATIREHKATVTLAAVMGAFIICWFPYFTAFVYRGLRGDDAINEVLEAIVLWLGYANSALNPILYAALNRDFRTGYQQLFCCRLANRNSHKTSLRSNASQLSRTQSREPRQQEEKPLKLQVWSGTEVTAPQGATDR
# [13] = target: D(3) dopamine receptor (Homo sapiens, UniProt P35462); assay: as §1, with “DRD3” for “TMEM97”
# D(3) dopamine receptor, sequence (P35462 whole entry): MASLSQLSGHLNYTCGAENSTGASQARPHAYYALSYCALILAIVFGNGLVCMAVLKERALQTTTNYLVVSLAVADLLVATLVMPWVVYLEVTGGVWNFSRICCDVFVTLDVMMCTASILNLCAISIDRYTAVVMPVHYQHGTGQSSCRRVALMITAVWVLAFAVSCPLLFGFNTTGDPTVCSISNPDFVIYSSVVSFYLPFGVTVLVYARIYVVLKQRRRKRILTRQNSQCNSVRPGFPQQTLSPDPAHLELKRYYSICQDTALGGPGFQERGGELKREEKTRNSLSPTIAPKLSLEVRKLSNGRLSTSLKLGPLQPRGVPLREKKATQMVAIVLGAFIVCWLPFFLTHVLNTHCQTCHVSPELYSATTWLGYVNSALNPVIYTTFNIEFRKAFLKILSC
# [14] = target: Mu-type opioid receptor (Homo sapiens, UniProt P35372); assay: as §1, with “OPRM1” for “TMEM97”
# Mu-type opioid receptor, sequence (P35372 whole entry): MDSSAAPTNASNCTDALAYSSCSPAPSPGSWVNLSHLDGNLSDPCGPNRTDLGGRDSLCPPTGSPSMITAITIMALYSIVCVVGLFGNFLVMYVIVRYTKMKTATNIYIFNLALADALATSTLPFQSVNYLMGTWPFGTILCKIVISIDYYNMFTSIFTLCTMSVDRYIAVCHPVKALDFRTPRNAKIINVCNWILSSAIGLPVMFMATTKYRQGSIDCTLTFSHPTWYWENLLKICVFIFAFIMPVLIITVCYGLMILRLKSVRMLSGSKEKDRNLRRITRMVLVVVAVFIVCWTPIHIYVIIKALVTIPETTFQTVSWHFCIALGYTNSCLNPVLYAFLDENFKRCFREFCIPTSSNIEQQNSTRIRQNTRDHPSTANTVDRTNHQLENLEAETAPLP
# [15] = target: Histamine H1 receptor (Homo sapiens, UniProt P35367); assay: as §1, with “HRH1” for “TMEM97”
# [16] = target: T3, 5-hydroxytryptamine receptor 1A (Homo sapiens, UniProt P08908); assay: as §1, with “HTR1A” for “TMEM97”
# T3 sequence (P08908 whole entry): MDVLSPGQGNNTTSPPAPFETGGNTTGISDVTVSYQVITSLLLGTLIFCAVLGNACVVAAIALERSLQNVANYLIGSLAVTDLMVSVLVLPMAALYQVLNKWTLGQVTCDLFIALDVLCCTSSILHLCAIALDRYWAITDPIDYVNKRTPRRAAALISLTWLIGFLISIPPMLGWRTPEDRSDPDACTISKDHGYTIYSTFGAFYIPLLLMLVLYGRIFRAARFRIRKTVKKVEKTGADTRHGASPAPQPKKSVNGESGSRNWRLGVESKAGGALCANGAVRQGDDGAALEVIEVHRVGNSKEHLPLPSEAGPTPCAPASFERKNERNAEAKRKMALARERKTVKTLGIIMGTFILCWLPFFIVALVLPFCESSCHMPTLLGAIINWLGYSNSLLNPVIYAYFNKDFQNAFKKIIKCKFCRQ
# [17] = target: T4, 5-hydroxytryptamine receptor 2C (Homo sapiens, UniProt P28335); assay: as §1, with “HTR2C” for “TMEM97”
# T4 sequence (P28335 whole entry): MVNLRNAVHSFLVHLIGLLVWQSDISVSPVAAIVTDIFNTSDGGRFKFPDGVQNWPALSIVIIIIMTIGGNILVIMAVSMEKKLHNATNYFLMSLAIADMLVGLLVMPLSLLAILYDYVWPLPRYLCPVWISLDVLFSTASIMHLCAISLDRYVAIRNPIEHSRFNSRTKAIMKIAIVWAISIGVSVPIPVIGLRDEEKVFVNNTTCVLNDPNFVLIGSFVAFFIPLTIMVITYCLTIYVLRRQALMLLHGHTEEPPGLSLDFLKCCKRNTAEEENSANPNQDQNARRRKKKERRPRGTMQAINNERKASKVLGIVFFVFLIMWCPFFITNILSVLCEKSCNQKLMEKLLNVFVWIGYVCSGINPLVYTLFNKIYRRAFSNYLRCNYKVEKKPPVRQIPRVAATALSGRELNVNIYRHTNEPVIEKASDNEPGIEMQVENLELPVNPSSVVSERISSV
# [18] = target: T5, Alpha-1B adrenergic receptor (Homo sapiens, UniProt P35368); assay: as §1, with “ADRA1B” for “TMEM97”
# T5 sequence (P35368 whole entry): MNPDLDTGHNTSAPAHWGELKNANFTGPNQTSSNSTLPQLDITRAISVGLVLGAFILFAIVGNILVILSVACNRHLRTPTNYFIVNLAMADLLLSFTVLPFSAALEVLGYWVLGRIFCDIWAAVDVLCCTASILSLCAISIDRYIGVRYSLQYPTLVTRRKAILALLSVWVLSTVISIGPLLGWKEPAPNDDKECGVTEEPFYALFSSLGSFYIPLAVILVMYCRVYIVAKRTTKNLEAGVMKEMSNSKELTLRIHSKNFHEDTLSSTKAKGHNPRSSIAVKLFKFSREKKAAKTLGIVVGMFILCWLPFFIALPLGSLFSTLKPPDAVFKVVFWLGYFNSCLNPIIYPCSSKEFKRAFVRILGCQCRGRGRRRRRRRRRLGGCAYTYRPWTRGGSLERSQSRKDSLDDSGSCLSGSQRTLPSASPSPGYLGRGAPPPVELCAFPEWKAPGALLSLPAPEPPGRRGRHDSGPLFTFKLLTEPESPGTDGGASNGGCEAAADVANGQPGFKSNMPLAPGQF
# [19] = target: 5-hydroxytryptamine receptor 7 (Homo sapiens, UniProt P34969); assay: as §1, with “HTR7” for “TMEM97”
# [20] = target: 5-hydroxytryptamine receptor 1D (Homo sapiens, UniProt P28221); assay: as §1, with “HTR1D” for “TMEM97”
SMILES,Ki [1] [µM],Ki [2] [µM],Ki [3] [µM],Ki [4] [µM],Ki [5] [µM],Ki [6] [µM],Ki [7] [µM],Ki [8] [µM],Ki [9] [µM],Ki [10] [µM],Ki [11] [µM],Ki [12] [µM],Ki [13] [µM],Ki [14] [µM],Ki [15] [µM],Ki [16] [µM],Ki [17] [µM],Ki [18] [µM],Ki [19] [µM],Ki [20] [µM]
COc1cccc([C@@H](C)NCCCc2ccccc2Cl)c1 [TECALCET HYDROCHLORIDE],0.0746,0.181,2.32,0.955,1.4,0.0415,1.58,1.09,0.043,> 10,1.93,1.4,0.875,2.21,0.909,1.44,0.162,–,–,–
C[C@@H](NCCCc1cccc(C(F)(F)F)c1)c1cccc2ccccc12 [CINACALCET HYDROCHLORIDE],0.388,0.842,1.82,–,0.444,–,1.57,0.972,0.0397,–,1.45,2.62,0.391,1.3,–,1.96,0.658,2.89,0.571,1.7
